How the values were obtained:
[1] = test system: MDA-MB-231 breast cancer cells; assay: MTT cytotoxicity assay, MDA-MB-231 cells; assay type: cell-based, human; conditions: for IC50: 24 h incubation, MTT, average of at least three experiments (±SD)
Procedure: (§1) The MDA-MB-231 and MCF-7 human breast cancer cells were purchased from ATCC. The MDA-MB-231 and MCF-7 cells were grown in Dulbecco's modified Eagles' medium (DMEM high glucose) (Capricorn Scientific) at 37°C in 5% CO2 supplemented with 10% fetal bovine serum (Capricorn Scientific). HDF cells were purchased from Merck and were grown in the fibroblast growth medium. All cells were adherent in monolayers and, upon confluence, were washed with phosphate buffer saline (PBS) and harvested by digestion with trypsin-EDTA 0.05% (v/v). The cells were suspended and transferred into new, sterile, culture flasks for maintenance or seeded in sterile test microplates for different assays. All cells were manipulated under aseptic conditions in a flow chamber.
(§2) The cells were adherent in monolayers and, upon confluence, were harvested by digestion with trypsin. The cytotoxicity of the complexes against the tumour cells was assessed using the colorimetric assay MTT […], which evaluates the metabolic activity of viable cells. This assay measures the conversion of yellow tetrazolium into purple formazan by an active mitochondrial dehydrogenase in living cells. For this purpose, the cells (10–20 × 10^3 in 200 μL of the medium) were seeded into 96-well plates and incubated in a 5% CO2 incubator at 37°C. The cells were settled for 24 h followed by the addition of a dilution series of the complexes in a medium (200 μL). The complexes were first solubilized in 100% DMSO, given a 10 mM stock solution, and then in a medium within the concentration range of 0.1–100 µM. […] After 24 h of incubation, the treatment solutions were removed by aspiration, and MTT solution (200 μL, 0.5 mg·mL^−1 in PBS) was added to each well. After 3 h at 37°C/5% CO2, the solution was removed, and the purple formazan crystals formed inside the cells were dissolved in DMSO (200 μL) by thorough shaking. The cellular viability was evaluated by measuring the absorbance at 570 nm by using a microplate spectrophotometer. The IC50 values were obtained by dose-response curves using the GraphPad Prism software (vs. 5).
The MDA-MB-231 and MCF-7 human breast cancer cells were purchased from ATCC. MDA-MB-231 and MCF-7 cells were grown in Dulbecco’s modified Eagles’s medium (DMEM high glucose) (Capricorn Scientific) at 37 °C in 5% CO2 supplemented with 10% fetal bovine serum (Capricorn Scientific). All cells were adherent in monolayers and, upon confluence, were washed with phosphate buffer saline (PBS) and harvested by digestion with Trypsin-EDTA 0.05% (v/v). The cells were suspended and transferred into new, sterile, culture flasks, for maintenance or seeded in sterile test microplates for different assays. All cells were manipulated under aseptic conditions in a flow chamber.
The cells were adherent in monolayers and, upon confluency, were harvested by digestion with trypsin. The cytotoxicity of the complexes against the tumour cells was assessed using the colorimetric assay MTT […], which evaluate the metabolic activity of viable cells. This assay measures the conversion of the yellow tetrazolium into purple formazan by an active mitochondrial dehydrogenase in living cells. For this purpose, cells (10-20 × 10^3 in 200 μL of medium) were seeded into 96-well plates and incubated in a 5% CO2 incubator at 37 °C. The cells were settled for 24 h followed by the addition of a dilution series of the complexes in medium (200 μL). The complexes were first solubilized in 100% DMSO, given a 10 mM stock solution, and then in medium within the concentration range of 0.1–100 µM. […] After 24 h of incubation, the treatment solutions were removed by aspiration, and MTT solution (200 μL, 0.5 mg·mL^-1 in PBS) was added to each well. After 3 h at 37 °C/5% CO2, the solution was removed, and the purple formazan crystals formed inside the cells were dissolved in DMSO (200 μL) by thorough shaking. […]

[2] = Stability in DMSO-d6 and DMSO-d6/D2O monitored by 31P{1H} NMR; assay type: physicochemical; conditions: room temperature and 37°C, 48 h, 31P{1H} NMR
Source text: The assessment of the biological properties of the complexes requires their dissolution in a cell culture medium which is mainly constituted by water. When the complex is not hydrosoluble enough, the used protocol contemplates preliminary dissolution in DMSO before the addition to the culture medium. Thus, it is important to determine the stability and behaviour of the complexes in both DMSO and water/DMSO mixtures to check whether different species have been formed when dissolved. Dissolutions in DMSO-d6 and DMSO-d6/D2O of the new complexes 8 and 11 were monitored by ^31P{^1H} NMR over time at room temperature and 37°C. The stability studies of the rest of the complexes (1‐7, 9, 10) were published previously. All experiments were performed by a similar procedure: the complex (0.01 g) was introduced into a 5 mm NMR tube and dissolved in 0.5 mL of degassed solvent (DMSO-d6 and a 1 : 1 mixture of DMSO-d6/D2O). The solution was left at room temperature and monitored by ^31P{^1H} NMR first every 15 minutes, and later in longer periods. Stability was also monitored at incubation cell-based assay temperature (37°C).
All compounds were studied for their stability in 100% DMSO-d6 and DMSO-d6/D2O mixture by using NMR spectroscopy in common aerobic conditions. All experiments were performed by a similar procedure: the complex (0.01 g) was introduced into a 5 mm NMR tube and dissolved in 0.5 mL of degassed solvent (DMSO-d6 and a 1:1 mixture of DMSO-d6/D2O). The solution was left at room temperature and monitored by ^31P{^1H} NMR first every 15 minutes, and later in longer time periods. Stability was also monitored at incubation cell-based assays temperature (37 °C).

[3] = test system: MCF-7 breast cancer cells; assay: MTT cytotoxicity assay, MCF-7 cells; assay type: cell-based, human; conditions: 24 h incubation, average of at least three experiments (±SD)
Procedure: as §1
The cells were adherent in monolayers and, upon confluence, were harvested by digestion with trypsin. The cytotoxicity of the complexes against the tumour cells was assessed using the colorimetric assay MTT […], which evaluates the metabolic activity of viable cells. This assay measures the conversion of yellow tetrazolium into purple formazan by an active mitochondrial dehydrogenase in living cells. For this purpose, the cells (10–20 × 10^3 in 200 μL of the medium) were seeded into 96-well plates and incubated in a 5% CO2 incubator at 37°C. The cells were settled for 24 h followed by the addition of a dilution series of the complexes in a medium (200 μL). The complexes were first solubilized in 100% DMSO, given a 10 mM stock solution, and then in a medium within the concentration range of 0.1–100 µM. […] The cellular viability was evaluated by measuring the absorbance at 570 nm by using a microplate spectrophotometer. […]
The cells were adherent in monolayers and, upon confluency, were harvested by digestion with trypsin. The cytotoxicity of the complexes against the tumour cells was assessed using the colorimetric assay MTT […], which evaluate the metabolic activity of viable cells. […]

[4] = test system: normal human fibroblasts (HDF); assay: MTT cytotoxicity assay, normal human dermal fibroblasts; assay type: cell-based; conditions: for IC50: 24 h incubation, MTT, normal human fibroblasts; for Fold less cytotoxic for fibroblasts (HDF) than for MCF-7 cells: selectivity HDF vs MCF-7; for Fold less cytotoxic for fibroblasts (HDF) than for MDA-MB-231 cells: selectivity HDF vs MDA-MB-231
Procedure: as §1, §2

[5] = molecular target: human serum albumin (HSA) (Homo sapiens, UniProt P02768); assay: Binding to human serum albumin by steady-state and time-resolved Trp214 fluorescence; conditions: for Emission intensity of Trp214 relative to value in the absence of compound: 20 µM compound (1:4 HSA:compound), 24 h, λem 340 nm; for Type of quenching: HSA-Trp214 fluorescence; for Spectral shift of Trp214 emission: steady-state emission, 24 h incubation; for Effect on amplitude-weighted mean fluorescence lifetime of HSA-Trp214: time-resolved fluorescence, λem 350 nm
Procedure: (§3) The stock solutions of HSA were freshly prepared for each experiment by gently dissolving protein in PBS pH 7.4 (tablets from Fisher) for 1 hour to allow protein to completely hydrate. The concentration of the protein in the stock solutions was determined by spectrophotometry using the molar absorption coefficient at 280 nm ε280(HSA) = 36,850 M^−1·cm^−1 [38].
In each essay, all spectroscopic measurements were carried out on individually prepared samples to ensure the same preincubation time at (37.0 ± 0.1)°C, the same % of DMSO in the final samples, and the same exposure to excitation light and to avoid the need for dilution corrections. Moreover, for a direct titration protocol, a highly concentrated stock solution of the compounds in the buffer would be required, which would raise solubility issues. Dimethylsulfoxide (DMSO, from Fisher) was used to prepare concentrated stock solutions of each complex, followed by appropriate dilution to obtain the desired concentration. The DMSO content was kept at 2% (v/v) in PBS pH 7.4 in all samples. Dilutions were carried out immediately before sample preparation.
Fluorescence measurements were performed at 25.0 ± 0.1°C. The final protein concentration in the individually prepared samples (3.72 to 5 μM) was kept constant in each assay, and the complex concentration was varied to obtain desired HSA: Ru-complex molar ratios ranging from 1 : 0.25 to 1 : 10. A control sample containing the same amount of protein and final DMSO content and with no complex was also prepared for each experiment. Appropriate blank samples with no protein but with the same complex concentrations were prepared as well for background correction.
The steady-state fluorescence intensity was measured with excitation at 295 nm, and emission spectra were collected with bandwidths of 4 nm for both excitation and emission. For Stern–Volmer plots, the fluorescence intensity with emission at 340 nm was selected because it is near the maximum emission wavelength (so the sensitivity is close to maximum), but it is further to red in relation to the water Raman scattering peak. These values were corrected for the absorption and emission inner filter effects using the absorbance recorded for each sample at the excitation and emission wavelengths used for the steady-state quenching analysis. For time-resolved fluorescence measurements, the single-photon-counting technique was used with nanoLED N-280 (Horiba Jobin Yvon) as the pulsed excitation source (280 nm) and with emission collected at 350 nm (13 nm emission bandwidth), eliminating the contribution of the emission by tyrosine residues.
The experimental fluorescence intensity decays of HSA in buffer solution can be described by a sum of exponentials:(1) It=∑i=1npiexp−t/τi, where pi and τi are the pre-exponential factors and lifetime of component i, respectively. The amplitude or normalized pre-exponential of each lifetime component αi is pi/Σipi with Σiαi = 1. Fluorescence decays were analysed by an iterative deconvolution method using the TRFA Data Processor software (version 1.4; Minsk, Belarus), and the instrument response function was obtained using scattering by a colloidal suspension of silica (Ludox®, Sigma-Aldrich) diluted in water. Criteria for judging the quality of the fit were reduced χ^2 close to 1 and a random distribution of weighted residuals and residual autocorrelation.
To evaluate changes in the quantum yield by processes affecting the fluorescence lifetimes of HSA, the amplitude-weighted mean fluorescence lifetime ( τ¯ ) was calculated using the following equation:(2) τ¯=∑i=1nαiτi.
as §3, with “dissolving the” for “dissolving”, “allow the” for “allow”, “of” for “of the”, “M^−1 cm^−1.[8] […]” for “M^−1·cm^−1 [38].”

Chain of human serum albumin (HSA) (P02768 25-609): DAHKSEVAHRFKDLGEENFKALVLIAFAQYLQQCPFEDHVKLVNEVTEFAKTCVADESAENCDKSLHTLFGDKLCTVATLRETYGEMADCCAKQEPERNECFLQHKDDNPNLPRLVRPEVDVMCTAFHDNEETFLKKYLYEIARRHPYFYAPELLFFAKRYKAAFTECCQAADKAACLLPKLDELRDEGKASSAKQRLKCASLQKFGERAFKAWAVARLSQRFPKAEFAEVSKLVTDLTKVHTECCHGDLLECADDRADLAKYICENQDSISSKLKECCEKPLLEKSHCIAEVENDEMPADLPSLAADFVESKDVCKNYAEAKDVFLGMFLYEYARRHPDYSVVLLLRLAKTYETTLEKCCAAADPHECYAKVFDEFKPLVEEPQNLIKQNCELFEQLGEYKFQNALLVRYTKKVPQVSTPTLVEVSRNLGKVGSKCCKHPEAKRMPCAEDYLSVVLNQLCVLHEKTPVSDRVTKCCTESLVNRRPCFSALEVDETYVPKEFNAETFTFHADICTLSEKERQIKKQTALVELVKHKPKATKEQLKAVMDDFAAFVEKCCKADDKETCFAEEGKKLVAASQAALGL

SMILES	IC50 [1]	Fold increase in cytotoxicity with respect to complex 5 ([1]; MDA-MB-231, 24 h)	Fold increase in antiproliferative activity with respect to complex 6 ([1]; MDA-MB-231, 24 h)	Stability in DMSO-d6 [2]	Stability in DMSO-d6/D2O (1:1) [2]	IC50 [3]	IC50 [4]	Fold less cytotoxic for fibroblasts (HDF) than for MCF-7 cells [4]	Fold less cytotoxic for fibroblasts (HDF) than for MDA-MB-231 cells [4]	Emission intensity of Trp214 relative to value in the absence of compound [5]	Type of quenching [5]	Spectral shift of Trp214 emission [5]	Effect on amplitude-weighted mean fluorescence lifetime of HSA-Trp214 [5]
C[N+]12CN3CN(C1)C[P]([Ru+]([Cl])[P](c1ccccc1)(c1ccccc1)c1ccccc1)(C3)C2.O=S(=O)([O-])C(F)(F)F.c1cc[cH-]c1 [Compound 6, [RuClCp(PPh3)(mPTA)](CF3SO3)]	8.3 ± 1.4 µM	7 fold	–	–	–	–	–	–	–	–	–	–	–
CN1CN2C[NH+](C)C[P]([Ru+]([Cl])[P](c3ccccc3)(c3ccccc3)c3ccccc3)(C1)C2.O=S(=O)([O-])C(F)(F)F.c1cc[cH-]c1 [Compound 7, [RuClCp(HdmoPTA)(PPh3)](CF3SO3)]	2.5 ± 1.1 µM	–	4 fold	–	–	–	–	–	–	–	–	–	–
CN1CN2C[NH+](C)C[P]([Ru+2]([P](c3ccccc3)(c3ccccc3)c3ccccc3)[S](C)(C)=O)(C1)C2.O=S(=O)([O-])C(F)(F)F.O=S(=O)([O-])C(F)(F)F.c1cc[cH-]c1 [Compound 8, [RuCp(DMSO-κS)(HdmoPTA)(PPh3)](CF3SO3)2]	15 ± 2.2 µM	–	–	stable	stable	–	–	–	–	–	–	–	–
CN1CN2C[NH+](C)C[P]([Ru+2]([P](c3ccccc3)(c3ccccc3)c3ccccc3)[P](c3ccccc3)(c3ccccc3)c3ccccc3)(C1)C2.O=S(=O)([O-])C(F)(F)F.O=S(=O)([O-])C(F)(F)F.c1cc[cH-]c1 [Compound 9, [RuCp(HdmoPTA)(PPh3)2](CF3SO3)2]	0.86 ± 0.13 µM	–	–	–	–	0.48 ± 0.07 µM	1.23 ± 0.32 µM	2-3 fold	1.5 fold	approximately 60%	Static	do not induce any spectral shift	does not affect
CN1CN2CN(C)C[P]([Ru+2]([P](c3ccccc3)(c3ccccc3)c3ccccc3)[P](c3ccccc3)(c3ccccc3)c3ccccc3)(C1)C2.O=S(=O)([O-])C(F)(F)F.c1cc[cH-]c1 [Compound 10, [RuCp(dmoPTA)(PPh3)2](CF3SO3)]	0.84 ± 0.09 µM	–	–	–	–	0.4 ± 0.04 µM	1.47 ± 0.4 µM	2-3 fold	1.5 fold	~75%	Static	do not induce any spectral shift	does not affect

Reference: article PMC10555500, “Evaluation of the Antiproliferative Properties of CpRu Complexes Containing N-Methylated Triazaphosphaadamantane Derivatives” (Bioinorganic Chemistry and Applications, 2023)
